Data as given in article PMC9947563, “Identification of the molecular determinants of antagonist potency in the allosteric binding pocket of human P2X4” (Frontiers in Pharmacology, 2023).
Positions count from the first letter of the chain named.

Key:
[1] = tested on: mP2X4; conditions: ref Ase et al. (2015); read-out: mP2X4 IC50; cited from earlier work
[2] = tested on: rP2X4; conditions: ref Ase et al. (2015); cited from earlier work
[3] = target: T1, rat P2X4 wild type (r4-WT) (Rattus norvegicus, UniProt P51577); assay: ATP-induced calcium influx (Fluo-4) in 1321N1 cells stably expressing rat P2X4 wild type; assay type: cell-based
T1 construct: expressed in transfected cells; host or cells: 1321N1 astrocytoma cells, stably transfected
T1 sequence (P51577 1-388): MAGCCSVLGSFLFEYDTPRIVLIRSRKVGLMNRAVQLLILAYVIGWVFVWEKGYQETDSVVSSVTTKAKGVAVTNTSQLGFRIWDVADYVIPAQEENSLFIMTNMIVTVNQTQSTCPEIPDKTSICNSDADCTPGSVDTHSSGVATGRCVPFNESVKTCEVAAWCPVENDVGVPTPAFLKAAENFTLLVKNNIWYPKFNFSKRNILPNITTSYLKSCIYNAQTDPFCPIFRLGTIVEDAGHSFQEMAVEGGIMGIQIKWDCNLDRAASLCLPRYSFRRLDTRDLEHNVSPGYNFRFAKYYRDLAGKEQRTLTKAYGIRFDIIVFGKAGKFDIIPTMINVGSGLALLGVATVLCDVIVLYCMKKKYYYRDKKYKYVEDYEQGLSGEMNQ
Protocol: (§1) 1321N1 astrocytoma cells were cultured (at 37°C, 5% CO2) in Dulbecco’s modified Eagle’s medium (DMEM/F-12 with Glutamax) supplemented with 10% foetal bovine serum (FBS) and 200 unit/mL of penicillin and streptomycin antibiotics (Fisher Scientific). Stably transfected clones were grown in DMEM/F-12 with Glutamax medium supplemented with G-418 (Geneticin®, Fisher Scientific), 600 μg/mL and 150 μg/mL during selection and maintenance, respectively. FuGene HD Transfection Reagent (Promega) was used according to the manufacturer’s protocol for the generation of stable cell line expressing h4-WT, r4-WT, h4-I312T, and r4-T312I. Each cell line was then tested for P2X4 receptor expression by Western blot and for functionality using the Ca^2+ influx assay.
(§2) Cells were plated the day before assay into poly-lysine-coated 96-well plates at 40–55,000 cells/mL. To load cells with calcium-sensitive fluorescent dye, culture medium was replaced with modified Ringer’s buffer (140 mM NaCl, 10 mM HEPES, 10 mM Glucose, 1 mM MgCl2, 1 mM CaCl2, 2.5 mM KCl, 0.5% BSA, pH = 7.4) containing 2.6 μM FLUO4-AM (Fisher Scientific) and 250 μM probenecid (Sigma), and cells were incubated for 20–30 min. Prior to assay, buffer was replaced with fresh modified Ringer’s buffer containing probenecid but not the dye. […] A Fluoroskan Ascent FL plate reader (Fisher Scientific) equipped with a solution dispenser and an appropriate filter pair (excitation: 485 nm, emission: 538 nm) was used to record 5-s baseline followed by P2X4-mediated calcium influx measurements for 20–25 s after ATP stimulation (final concentration ranging between 0.03 and 100 μM in buffered solution, pH = 7.4). The collected responses were normalized to the first data-point recorded after ATP injection.
(§3) Data processing and data analysis were carried out using Graphpad Prism version 6 for Mac. Figures are presented as Mean ± SEM. Statistical significance of any difference observed between samples was calculated through one-way ANOVA followed by Dunnett’s multiple comparisons test with a single pooled variance (control, unless otherwise specified) or, when comparing only two sets of data, using an unpaired t-test with Welch’s correction. When comparing data obtained from multiple independent experiments (N), each dataset was normalized to the mean value obtained for the vehicle control.

[4] = target: T2, rat P2X4 T312I (r4-T312I) (Rattus norvegicus, UniProt P51577, T312I); assay: ATP-induced calcium influx (Fluo-4) in 1321N1 cells stably expressing rat P2X4 T312I; assay type: cell-based
T2 construct: expressed in transfected cells; host or cells: 1321N1 astrocytoma cells, stably transfected
T2 sequence (P51577 1-388 T312I): T1 sequence (P51577 1-388) with T312I
Source text: Plasmid encoding rat P2X4 (r4-WT) ([Royle et al., 2005]) was a kind gift from Ruth Murrell-Lagnado, whilst that encoding human P2X4 with a C-terminal (His)10 tag has been reported previously ([Young et al., 2008]). Plasmids containing rat P2X4 T312I (r4-T312I) and human P2X4 I312T mutants (h4-I312T) were generated using the QuikChange Lightning site-directed mutagenesis kit (Agilent) according to manufacturer’s instructions. Sequencing of the constructs and of the genomic DNA from stably transfected cells confirmed correct full coding sequences.
as §1, §2, §3

[5] = tested on: zebrafish P2X4; design: method as in Ase et al. (2015); conditions: ref Ase et al. (2015); cited from earlier work

For `CC(C)c1cc(Br)c(NC(=O)Nc2cccnc2)c(Br)c1` [BX430], the IC50 [1] is given as greater than 10 µM, the IC50 [2] is given as greater than 10 µM and the IC50 [3] is given as 66.1 µM. The “Hill coefficient (BX-430 inhibition curve)” value ([3]; rat P2X4 WT, 1 µM ATP) was 1.441, the IC50 [4] was 1.39 µM and the “increase in BX430 potency by T312I mutation in rat P2X4” value ([4]; rat P2X4 T312I vs rat P2X4 WT) was “approx. 47 fold”. For the same molecule, the “Hill coefficient (BX-430 inhibition curve)” value ([4]; rat P2X4 T312I, 1 µM ATP) was 2.475 and the IC50 [5] was 1.89 µM.
